{"source": "paper PMC7352759", "about": "“S(+)-(2E)-N-(2-Hydroxypropyl)-3-Phenylprop-2-Enamide (KM-568): A Novel Cinnamamide Derivative with Anticonvulsant Activity in Animal Models of Seizures and Epilepsy” (International Journal of Molecular Sciences, 2020)", "type_in_all_cases": "in vivo", "key": {"rats [1]": {"tested_on": "rats", "assay": "Neurotoxicity (TOX), behavioral tests, rats", "description": "(§1) In mice, the neurological deficit was measured by the rotarod test in which a 1 inch diameter knurled plastic rod rotating at 6 rpm was used. Tests were performed at 0.25 h or 0.5 h of intraperitoneal or oral administration of the certain dose of the compounds KM-568. Each mouse was placed on the rod. If the animal was not able to remain on the rod for at least 1 min in each of three trials, the neurotoxicity was scored. In rats, the neurological deficit was measured in behavioral tests and scored when ataxia and loss of placing response and muscle tone were observed. Tests in rats were performed after 0.5 h of intraperitoneal administration or 1.0 h of oral administration of the certain dose of compound KM-568. TD50s were calculated by probit analysis."}, "[2]": {"assay": "Neurotoxicity (TOX), behavioral tests, rats", "details": "rat, in vivo", "description": "as §1"}, "rats [3]": {"tested_on": "rats", "assay": "Subcutaneous metrazol seizure threshold test (scMET), rats", "details": "for ED50: Rattus norvegicus; for scMET Results (protected/tested animals): i.p.", "description": "In vivo activity testing was performed at the Epilepsy Branch, National Institute of Neurological Disorders and Stroke, National Institutes of Health (NIH, Bethesda, USA) within the Anticonvulsant Screening Program (ASP) (currently known as the Epilepsy Therapy Screening Program (ETSP)). Pharmacological evaluation was planned and performed in accordance with the Institute of Laboratory Resources polices on the humane care of laboratory animals and approved by the University of Utah’s Institutional Animal Care and Use Committee (IACUC). All testing protocols were previously published as well as they are available on the NIH website. In the tests, albino mice Carworth Farms No.1 (CF-1) (Charles River), C57/Bl6 mice (Charles River), Frings mice (University of Utah) or male rats Sprague–Dawley (Charles River) were used. All animals were housed, fed, and handled in a manner consistent with the recommendations in the National Council Publication, ‘Guide for the Care and Use of Laboratory animals’ [51]. The tested compound was suspended in 0.5% methylcellulose.\nThe tested compound was administered i.p. or p.o. at certain dose. Then, subcutaneous injection of metrazol (syn. pentetrazol, pentylenepentetrazol) dissolved in 0.9% NaCl at the dose of 85 mg/kg (mice) or 70 mg/kg (rats) was performed to induce seizures. Protection was scored if there was not an observed episode of clonic spasm of at least 5 sec."}}}
{"compound": "C[C@H](O)CNC(=O)/C=C/c1ccccc1", "note": "[KM-568, S(+)-(2E)-N-(2-hydroxypropyl)-3-phenylprop-2-enamide]", "values": [{"measurement": "TOX Results (animals displaying neurotoxicity/animals used)", "setting": "rats [1]; i.p., 60 mg/kg, 0.5 h", "value": "0/8"}, {"measurement": "TOX Results (animals displaying neurotoxicity/animals used)", "setting": "rats [1]; i.p., 80 mg/kg, 0.5 h", "value": "0/8"}, {"measurement": "TOX Results (animals displaying neurotoxicity/animals used)", "setting": "rats [1]; i.p., 100 mg/kg, 0.5 h", "value": "2/8"}, {"measurement": "TOX Results (animals displaying neurotoxicity/animals used)", "setting": "rats [1]; i.p., 120 mg/kg, 0.5 h", "value": "5/8"}, {"measurement": "TOX Results (animals displaying neurotoxicity/animals used)", "setting": "rats [1]; i.p., 140 mg/kg, 0.5 h", "value": "7/8"}, {"measurement": "TOX Results (animals displaying neurotoxicity/animals used)", "setting": "rats [1]; p.o., 125.0 mg/kg, 1.0 h", "value": "0/2"}, {"measurement": "TOX Results (animals displaying neurotoxicity/animals used)", "setting": "rats [1]; p.o., 250.0 mg/kg, 1.0 h", "value": "0/2"}, {"measurement": "TOX Results (animals displaying neurotoxicity/animals used)", "setting": "rats [1]; p.o., 500.0 mg/kg, 1.0 h", "value": "0/2"}, {"measurement": "TD50 at 0.5 h", "setting": "[2]; ip, 0.5 h, 95% confidence interval in parentheses", "value": 95.2, "unit": "mg/kg"}, {"measurement": "TD50 at 1 h", "setting": "[2]; po, 1.0 h", "value": "> 500", "unit": "mg/kg"}, {"measurement": "ED50", "setting": "rats [3]; ip, 0.25 h, 95% confidence interval in parentheses", "value": 41.7, "unit": "mg/kg"}, {"measurement": "ED50", "setting": "rats [3]; po, 1.0 h, doses 62.5, 125.0, 250.0 mg/kg", "value": "> 250", "unit": "mg/kg"}, {"measurement": "scMET Results (protected/tested animals)", "setting": "rats [3]; 30 mg/kg, 0.25 h", "value": "1/8"}, {"measurement": "scMET Results (protected/tested animals)", "setting": "rats [3]; 45 mg/kg, 0.25 h", "value": "4/8"}, {"measurement": "scMET Results (protected/tested animals)", "setting": "rats [3]; 60 mg/kg, 0.25 h", "value": "8/8"}, {"measurement": "scMET Results (protected/tested animals)", "setting": "rats [3]; 95 mg/kg, 0.25 h", "value": "8/8"}]}
